Experiments:
Type in all cases: in vivo
[1] = test system: adult engorged female ticks (Rhipicephalus microplus); assay: Rhipicephalus (Boophilus) microplus injection test; conditions: 168 h, egg deposition monitored after 7 days, read-out: efficacy (infertile eggs); for pest or weed control at 4 µg/tick: 4 μg/tick injected; for pest or weed control at 20 µg/tick: 20 μg/tick injected
Description: Rhipicephalus (Boophilus) microplus—Iniectiontest
(§1) • Solvent: dimethyl sulfoxide
To produce a suitable preparation of active compound, 10 mg of active compound are dissolved in 0.5 mL solvent, and the concentrate is diluted with solvent to the desired concentration.
Five adult engorged female ticks (Rhipicephalus microplus) are injected with 1 μL compound solution into the abdomen. The ticks are transferred into replica plates and incubated in a climate chamber.
After 7 days egg deposition of fertile eggs is monitored. Eggs where fertility is not visible are stored in a climate chamber till hatching after about 42 days. An efficacy of 100% means all eggs are infertile; 0% means all eggs are fertile.

[2] = test system: Rhipicephalus (Boophilus) microplus larvae (strain Parkhurst, resistant against synthetic pyrethroids); assay: Rhipicephalus (Boophilus) microplus in-vitro contact test, larval cattle tick; conditions: 5 μg/cm^2 (=500 g/ha), after 48 hours, read-out: efficacy (larvae dead or moribund)
Description: Rhipicephalus (Boophilus) microplus—In-Vitro Contact Tests Larval Cattle Tick (Strain Parkhurst, Resistant Against Synthetic Pyrethroids)
9 mg compound is solved in 1 mL acetone and diluted with acetone to the desired concentration. 250 μL of the test solution is filled in 25 mL glass test tubes and homogeneously distributed on the inner walls by rotation and tilting on a shaking device (2 h at 30 rpm). With a compound concentration of 900 ppm, an inner surface of 44.7 cm^2 and a homogeneous distribution, a dose of 5 μg/cm^2 is achieved.
After the solvent has evaporated, each test tube is filled with 20-50 cattle tick larvae (Rhipicephalus microplus), closed with a perforated lid and incubated in a horizontal position at 85% relative humidity and 27° C. in an incubator. After 48 hours efficacy is determined. The larvae are patted on the ground of the tubes and negative geotactic behavior is recorded.
An efficacy of 100% means all larvae are dead or moribund; 0% means no larvae are dead or moribund.

[3] = test system: fall armyworm larvae (Spodoptera frugiperda); assay: Spodoptera frugiperda spray test; conditions: in Zea mays, 168 h
Description: Spodoptera frugiperda—Spray Test
(§2) • Solvent: 78.0 parts by weight acetone • 1.5 parts by weight dimethylformamide • Emulsifier: alkylarylpolyglycol ether
(§3) To produce a suitable preparation of active compound, 1 part by weight of active compound is mixed with the stated amount of solvents and is diluted with water, containing an emulsifier concentration of 1000 ppm, to the desired concentration. Further test concentrations are prepared by dilution with emulsifier containing water.
Maize (Zea mays) leaf sections are sprayed with a preparation of the active ingredient of the desired concentration. Once dry, the leaf sections are infested with fall armyworm larvae (Spodoptera frugiperda). After 7 days mortality in % is determined. 100% means all caterpillars have been killed and 0% means none of the caterpillars have been killed.

[4] = test system: larvae of the banded cucumber beetle (Diabrotica balteata); assay: Diabrotica balteata spray test; conditions: 168 h, 100 g/ha (=32 μg/well), after 7 days, wheat seeds, read-out: efficacy (seedling growth)
Description: Diabrotica balteata—Spray Test
(§4) • Solvent: 78.0 parts by weight of acetone • 1.5 parts by weight of dimethylformamide • Emulsifier: alkylarylpolyglycol ether
as §3, with “solvent,” for “solvents”, “and the concentrate” for “and”
Soaked wheat seeds (Triticum aestivum) are placed in a multiple well plate filled with agar and some water and are incubated for 1 day to germinate (5 seeds per well). The germinated wheat seeds are sprayed with a test solution containing the desired concentration of the active ingredient. Afterwards each unit is infected with 10-20 larvae of the banded cucumber beetle (Diabrotica balteata).
After 7 days efficacy in % is determined. 100% means all the seedlings have grown up like in the untreated, uninfected control; 0% means none of the seedlings have grown.

[5] = test system: green peach aphid (Myzus persicae); assay: Myzus persicae spray test; conditions: foliar, 120 h, after 5 days, Chinese cabbage leaf disks
Description: Myzus persicae—Spray Test
as §2, §3
Chinese cabbage (Brassica pekinensis) leaf disks infected with all instars of the green peach aphid (Myzus persicae), are sprayed with a preparation of the active ingredient of the desired concentration.
After 5 days mortality in % is determined. 100% means all aphids have been killed and 0% means none of the aphids have been killed.

[6] = test system: adult mosquitoes Aedes aegypti strain MONHEIM; assay: Aedes aegypti test (AEDSAE surface treatment & contact assay); conditions: 24 hours after contact, read-out: efficacy (mortality); for mortality at 4 mg/m2: surface concentration 4 mg/m^2, 30 minutes exposure; for mortality at 20 mg/m2: surface concentration 20 mg/m^2, 30 minutes exposure
Description: Aedes aegypti Test (AEDSAE Surface Treatment & Contact Assay)
(§5) • Solvent: Aceton+2000 ppm rapeseed oil methyl ester (RME)
(§6) In order to produce a sufficient, active ingredient containing solution it is necessary to solve the test compound in the solvent-mix (acetone at 2 mg/ml/RME 2000 ppm). This solution is pipetted onto a glazed tile and after evaporation of the acetone, adult mosquitoes of the species Aedes aegypti strain MONHEIM are placed onto the dried surface. The exposure time is 30 minutes.
(§7) Mortality in percent (%) is determined 24 hours after contact of the insects to the treated surface. 100% mortality means that all tested insects are dead, whereas 0% means that no insect died.

[7] = test system: adult flies Musca domestica strain WHO-N; assay: Musca domestica test (MUSCDO surface treatment & contact assay); conditions: 24 hours after contact, read-out: efficacy (mortality)
Description: Musca domestica Test (MUSCDO Surface Treatment & Contact Assay)
as §5
as §6, with “flies” for “mosquitoes”, “Musca domestica” for “Aedes aegypti”, “WHO-N” for “MONHEIM”
as §7

[8] = test system: adult mosquitoes Culex quinquefasciatus strain P00; assay: Culex quinquefasciatus test (CULXFA surface treatment & contact assay); conditions: 24 hours after contact, read-out: efficacy (mortality)
Description: Culex quinquefasciatus Test (CULXFA Surface Treatment & Contact Assay)
as §5
as §6, with “2 000” for “2000”, “Culex Quinquefasciatus” for “Aedes aegypti”, “P00” for “MONHEIM”, “minutes. Mortality in percent (%) is determined 24 hours after contact of the insects to the treated surface. 100% mortality means that all tested insects are dead, whereas 0% means that no insect died.” for “minutes.”

[9] = test system: larvae of the southern green stink bug (Nezara viridula); assay: Nezara viridula spray test; conditions: 96 h, after 4 days, barley plants
Description: Nezara viridula—Spray Test
as §4
as §3, with “solvent,” for “solvents”, “and the concentrate” for “and”
Barley plants (Hordeum vulgare) are sprayed with a test solution containing the desired concentration of the active ingredient and are infested with larvae of the southern green stink bug (Nezara viridula).
After 4 days mortality in % is determined. 100% means all the stink bugs have been killed; 0% means none of the stink bugs have been killed.

[10] = test system: adult unfed cat fleas (Ctenocephalides felis); assay: Ctenocephalides felis oral test; conditions: 48 h, 100 ppm in cattle blood, after 2 days
Description: Ctenocephalides felis—Oral Test
as §1
To produce a suitable preparation of active compound, 10 mg of active compound are dissolved in 0.5 mL solvent, and the concentrate is diluted with cattle blood to the desired concentration.
Approximately 20 adult unfed cat fleas (Ctenocephalides felts) are placed in flea chambers. The blood chamber, sealed with parafilm on the bottom, are filled with cattle blood supplied with compound solution and placed on the gauze covered top of the flea chamber, so that the fleas are able to suck the blood. The blood chamber is heated to 37° C. whereas the flea chamber is kept at room temperature.
After 2 days mortality in % is determined. 100% means all the fleas have been killed; 0% means none of the fleas have been killed.

[11] = surface concentration 4 mg/m^2, 30 minutes exposure
[12] = surface concentration 20 mg/m^2, 30 minutes exposure

| Structure (SMILES) | pest or weed control at 4 µg/tick [1] | pest or weed control at 5 µg/cm2, 5 µg/cm2 [2] | mortality at 100 g/ha [3] | pest or weed control at 32 µg/disc, 100 g/ha [4] | mortality at 100 g/ha [5] | mortality at 20 mg/m2 [6] | mortality at 500 g/ha [9] | other results |
| --- | --- | --- | --- | --- | --- | --- | --- | --- |
| C[C@H](NC(=O)c1cc(OCC(Cl)=C(Cl)Cl)cc(C(F)(F)F)c1)c1ncnn1-c1ncc(C#N)s1 [Example I-28] | 100% | 100% | 100% | 100% | – | – | – | – |
| Cc1nc([C@H](C)NC(=O)c2cc(Cl)cc(C(C)(C)C#N)c2)n(-c2ncc(C(=O)N(C)C)s2)n1 [Example I-40] | – | – | 100% | 80% | 90% | – | – | – |
| C[C@H](NC(=O)c1cc(Cl)cc(Oc2ccccc2)c1)c1ncnn1-c1ccc(C#N)cn1 [Example I-7] | 100% | 100% | – | – | – | – | – | pest or weed control at 20 µg/tick [1]: 100% |
| C[C@H](NC(=O)c1cc(OC(F)(F)F)cc(C(C)(C)C#N)c1)c1ncnn1-c1ccc(C#N)cn1 [Example I-45] | – | 100% | – | 100% | 90% | 80 to 100% | 100% | mortality at 4 mg/m2 [6]: 80 to 100%; mortality at 4 mg/m2 [7, 11]: 80 to 100%; mortality at 20 mg/m2 [7, 12]: 80 to 100%; mortality at 4 mg/m2 [8, 11]: 80 to 100%; mortality at 20 mg/m2 [8, 12]: 80 to 100%; mortality at 100 g/ha [9]: 100% |
| C[C@H](NC(=O)c1cc(Br)cc(C=C(Cl)Cl)c1)c1ncnn1-c1ccc(C#N)cn1 [Example I-23] | 100% | – | – | – | – | – | – | mortality at 100 ppm [10]: 100% |
| C[C@H](NC(=O)c1cc(Br)cc(C(F)(F)C2CC2)c1)c1ncnn1-c1ncc(C#N)s1 [Example I-53] | – | – | 100% | 100% | – | 80 to 100% | – | – |
| C[C@H](NC(=O)c1cc(Cl)cc(Cn2cc(C(F)(F)F)cn2)c1)c1ncnn1-c1ccc(C#N)cn1 [Example I-10] | 100% | – | – | – | – | – | – | pest or weed control at 20 µg/tick [1]: 100%; mortality at 100 ppm [10]: 100% |
| C[C@H](NC(=O)c1cc(OC(F)(F)F)cc(C(C)(C)C#N)c1)c1ncnn1-c1cnc(C#N)cn1 [Example I-56] | – | – | 100% | 100% | 90% | 80 to 100% | 100% | mortality at 4 mg/m2 [6]: 80 to 100%; mortality at 100 g/ha [9]: 90% |
| C[C@H](NC(=O)c1cc(Cl)nc(C(C)(C)C#N)c1)c1ncnn1-c1ncc(C#N)s1 [Example I-71] | – | – | 100% | 100% | – | – | 100% | – |

Source: patent publication US12653190B2, “Heteroaryl-triazole compounds as pesticides” (Bayer Aktiengesellschaft, priority 2020, dated 2026)
